Measurements: PubChem BioAssay AID2060619 (Molecular Pharmacology Branch, DTP, NCI, 2025)
pIC50: −log10 of the molar value.

Tested on: 323965-272-R-J2-PDC complex spheroid viability
Experiment: Anticancer human tumor 323965-272-R-J2-PDC patient-derived pancreatic carcinoma cell line growth inhibition [CLK]
Settings: for pIC50: curve of first compound; for viability, T/C: stronger effect = lower value
How it was run: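 Multi-cell-type spheroids combined patient-derived tumor cells with HUVEC endothelial cells and human mesenchymal stem cells. Paired agents were dosed in half-log steps down from about clinical Cmax, or from 10 microM where Cmax was unknown.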

[1] = second compound 0.0316 µM, first compound 0.0316 µM
[2] = second compound 0.0316 µM, first compound 0.1 µM
[3] = second compound 0.0316 µM, first compound 0.316 µM
[4] = second compound 0.0316 µM, first compound 1 µM
[5] = second compound 0.1 µM, first compound 0.0316 µM
[6] = second compound 0.1 µM, first compound 0.1 µM
[7] = second compound 0.1 µM, first compound 0.316 µM
[8] = second compound 0.1 µM, first compound 1 µM
[9] = second compound 0.316 µM, first compound 0.0316 µM
[10] = second compound 0.316 µM, first compound 0.1 µM
[11] = second compound 0.316 µM, first compound 0.316 µM
[12] = second compound 0.316 µM, first compound 1 µM
[13] = second compound 1 µM, first compound 0.0316 µM
[14] = second compound 1 µM, first compound 0.1 µM
[15] = second compound 1 µM, first compound 0.316 µM
[16] = second compound 1 µM, first compound 1 µM
[17] = second compound 3.16 µM, first compound 0.0316 µM
[18] = second compound 3.16 µM, first compound 0.1 µM
[19] = second compound 3.16 µM, first compound 0.316 µM
[20] = second compound 3.16 µM, first compound 1 µM
[21] = second compound 10 µM, first compound 0.0316 µM
[22] = second compound 10 µM, first compound 0.1 µM
[23] = second compound 10 µM, first compound 0.316 µM
[24] = second compound 10 µM, first compound 1 µM
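Note: spheroids exposed to agents for seven days before readout.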
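Throughout, for viability, T/C: percent of DMSO vehicle control wells so 100% = untreated growth.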

For C=CC(=O)N1CCN(c2nc(=O)n(-c3c(C)ccnc3C(C)C)c3nc(-c4c(O)cccc4F)c(F)cc23)C(C)C1 (centres undefined) + CNC(=O)c1ccc(Nc2nc(OC3CCCC3)c3c(-c4ccc5nc(C)oc5c4)c[nH]c3n2)c(OC)c1, the pIC50 (second compound 0.0316 µM) was < 5.00, the pIC50 (second compound 0.1 µM) was < 5.00 and the pIC50 (second compound 0.316 µM) was > 7.50. For the same compound, the pIC50 (second compound 1 µM) was > 7.50, the pIC50 (second compound 3.16 µM) was > 7.50 and the pIC50 (second compound 10 µM) was > 7.50. The viability, T/C [1] was 61.4%, the viability, T/C [2] was 66.7% and the viability, T/C [3] was 66.9%. For the same compound, the viability, T/C [4] was 73.9%, the viability, T/C (second compound 0.0316 µM, first compound 3.16 µM) was 69% and the viability, T/C (second compound 0.0316 µM, first compound 10 µM) was 76.4%. For the same compound, the viability, T/C [5] was 66.6%, the viability, T/C [6] was 59.5% and the viability, T/C [7] was 59.1%. For the same compound, the viability, T/C [8] was 55.4%, the viability, T/C (second compound 0.1 µM, first compound 3.16 µM) was 59.5% and the viability, T/C (second compound 0.1 µM, first compound 10 µM) was 58.7%. The viability, T/C [9] was 44.8%, the viability, T/C [10] was 41.1% and the viability, T/C [11] was 39.7%. It also gave a viability, T/C [12] of 47.8%, a viability, T/C (second compound 0.316 µM, first compound 3.16 µM) of 45.1% and a viability, T/C (second compound 0.316 µM, first compound 10 µM) of 44.4%. It also gave a viability, T/C [13] of 28.3%, a viability, T/C [14] of 25.1% and a viability, T/C [15] of 24.4%. It also gave a viability, T/C [16] of 27.9%, a viability, T/C (second compound 1 µM, first compound 3.16 µM) of 28.2% and a viability, T/C (second compound 1 µM, first compound 10 µM) of 29%. It also gave a viability, T/C [17] of 26.9%, a viability, T/C [18] of 25.8% and a viability, T/C [19] of 28.5%. For the same compound, the viability, T/C [20] was 23.9%, the viability, T/C (second compound 3.16 µM, first compound 3.16 µM) was 26.6% and the viability, T/C (second compound 3.16 µM, first compound 10 µM) was 30.3%. The viability, T/C [21] was 23.2%, the viability, T/C [22] was 21.4% and the viability, T/C [23] was 26.9%. For the same compound, the viability, T/C [24] was 24.4%, the viability, T/C (second compound 10 µM, first compound 3.16 µM) was 27.1% and the viability, T/C (second compound 10 µM, first compound 10 µM) was 28.6%.
COc1c(OCCCN2CCOCC2)ccc2c3n(c(=NC(=O)c4cnc(N)nc4)nc12)CCN3 + CNC(=O)c1ccc(Nc2nc(OC3CCCC3)c3c(-c4ccc5nc(C)oc5c4)c[nH]c3n2)c(OC)c1 showed a pIC50 (second compound 0.0316 µM) of 7.04, a pIC50 (second compound 0.1 µM) of 7.21 and a pIC50 (second compound 0.316 µM) of 7.79. For the same compound, the pIC50 (second compound 1 µM) was > 8.50, the pIC50 (second compound 3.16 µM) was > 8.50 and the pIC50 (second compound 10 µM) was > 8.50. The viability, T/C (second compound 0.0316 µM, first compound 0.00316 µM) was 107%, the viability, T/C (second compound 0.0316 µM, first compound 0.01 µM) was 82% and the viability, T/C [1] was 66.8%. It also gave a viability, T/C [2] of 48.4%, a viability, T/C [3] of 34.1% and a viability, T/C [4] of 22.2%. It also gave a viability, T/C (second compound 0.1 µM, first compound 0.00316 µM) of 89.8%, a viability, T/C (second compound 0.1 µM, first compound 0.01 µM) of 84.6% and a viability, T/C [5] of 58.8%. The viability, T/C [6] was 42%, the viability, T/C [7] was 31.2% and the viability, T/C [8] was 21.1%. The viability, T/C (second compound 0.316 µM, first compound 0.00316 µM) was 64.5%, the viability, T/C (second compound 0.316 µM, first compound 0.01 µM) was 56.7% and the viability, T/C [9] was 42.4%. It also gave a viability, T/C [10] of 31.7%, a viability, T/C [11] of 27.7% and a viability, T/C [12] of 16.4%. It also gave a viability, T/C (second compound 1 µM, first compound 0.00316 µM) of 45.5%, a viability, T/C (second compound 1 µM, first compound 0.01 µM) of 38.8% and a viability, T/C [13] of 31.8%. For the same compound, the viability, T/C [14] was 24.5%, the viability, T/C [15] was 21.4% and the viability, T/C [16] was 15.2%. It also gave a viability, T/C (second compound 3.16 µM, first compound 0.00316 µM) of 37.5%, a viability, T/C (second compound 3.16 µM, first compound 0.01 µM) of 28.3% and a viability, T/C [17] of 23.3%. The viability, T/C [18] was 19.4%, the viability, T/C [19] was 15.8% and the viability, T/C [20] was 13.7%. It also gave a viability, T/C (second compound 10 µM, first compound 0.00316 µM) of 44.8%, a viability, T/C (second compound 10 µM, first compound 0.01 µM) of 32.7% and a viability, T/C [21] of 26.4%. For the same compound, the viability, T/C [22] was 19.8%, the viability, T/C [23] was 17.1% and the viability, T/C [24] was 13.5%.
